Consider 18 molecules from PubChem BioAssay (NCI).

Holding throughout (assay): inhibition of tumour cell growth, NCI panel, 48 h
The test system of test [1] is SF-539 CNS.
Test [2] concerns TK-10 renal.
The subject of test [3] is LOX IMVI melanoma.
The subject of test [4] is HOP-62 NSCLC.
Test [5] deals with SK-MEL-28 melanoma.
Test [6] relates to K-562 leukemia.
The subject of test [7] is ACHN renal.
The subject of test [8] is SW-620 colon.
Test [9] relates to SF-295 CNS.
The subject of test [10] is HCT-116 colon.

SMILES strings stand for the structures.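 Cells were grown in 96-well plates and exposed to each compound for 48 hours at five concentrations; endpoints were interpolated linearly between bracketing concentrations, or set to the highest concentration if not reached. GI50: concentration for 50% inhibition of growth. TGI denotes the concentration required for complete inhibition of growth.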

Regarding `O=C1C(Cl)=C(Nc2ccc3cn[nH]c3c2)C(=O)c2ccccc21`, the GI50 in test [1] was 1.81 µM; in test [2], 3.79 µM; in [3] it was 0.562 µM; in test [4], 2.15 µM; in [5], 1.65 µM; in [6] it was 0.526 µM. Moreover, the GI50 in test [7] was 1.33 µM; in test [8], 1.36 µM; in test [9], 1.67 µM; in test [10], 1.43 µM. Further, the TGI came out at 3.2 µM in [1]; 8.06 µM in [2]; 1.92 µM in test [3]; 5.29 µM in test [4]; 3.01 µM in [5]; 2.06 µM in [6]. The TGI was determined as 2.61 µM in [7], 2.95 µM in test [8], 4.14 µM in test [9] and 2.78 µM in test [10].

Regarding `COC(=O)c1ccccc1NC(=O)C(=O)CC(=O)c1ccccc1NC1=CC(=O)C(=O)c2ccccc21`, the TGI was 46.2 µM in test [1]; above 95.1 µM in [2]; 4.76 µM in test [3]; above 74.8 µM in test [4]; 29.4 µM in test [5]; above 100 µM in test [6]. Moreover, the TGI in test [7] was 59.5 µM; in test [8], 23 µM; in test [9], above 49.8 µM; in [10], 20 µM.

In the case of `Nc1nc2ccc([C@@H]3Nc4ccc5[nH]ncc5c4[C@H]4[C@H]5CCC(C5)[C@H]43)cc2s1`, the GI50 was 0.812 µM in [1]; 2.73 µM in test [2]; 0.935 µM in test [3]; 1.14 µM in test [4]; 1.36 µM in test [5]; 0.328 µM in test [6]. Also, the GI50 in [7] was 1.37 µM; in test [8], 0.474 µM; in test [9], 0.648 µM; in [10] it was 0.488 µM. The TGI in [1] worked out at 2.88 µM; in test [2], 8.98 µM; in [3], 2.54 µM; in [4] it was 2.9 µM; in [5], 4.29 µM; in [6], 5.87 µM. Also, the TGI in test [7] was found to be 9.57 µM; in [8] it was 1.87 µM; in test [9] it was 5.95 µM; in test [10], 1.84 µM.

As for `COc1ccc(C2NCCc3c2[nH]c2ccccc32)cc1CN1CCN(c2ccc(F)cc2)CC1` (stereo not drawn), the GI50 in test [1] was 1.88 µM; in test [2], 3.2 µM; in test [3], 1.64 µM; in [4], 1.81 µM; in test [5], 1.61 µM; in test [6], 1.73 µM. Moreover, the GI50 is 1.87 µM in test [7], 1.74 µM in test [8], 1.75 µM in test [9] and 1.62 µM in test [10]. For the same molecule, the TGI in [1] was 3.42 µM; in [2] it was 9.65 µM; in test [3], 3.09 µM; in [4], 3.82 µM; in test [5] it was 3.05 µM; in test [6], 4.09 µM. Besides, the TGI in [7] worked out at 3.69 µM; in test [8] it was 3.33 µM; in [9], 3.4 µM; in test [10] it was 3 µM.

Turning to `O=C1C=CC(=O)C1(Br)Br`, the TGI in test [1] was 30.4 µM; in test [2] it was 10.4 µM; in [3] it was 27.2 µM; in test [4], 38.4 µM; in [5] it was 21.8 µM; in test [6], above 95.1 µM. For the same molecule, the TGI in test [7] came out at 17.3 µM; in test [8] it was 27.9 µM; in test [9] it was 34.1 µM; in [10], 20.9 µM.

As for `CCCCCCCCOc1ccc(/C=N/Nc2cc(C)nc3ccc(Cl)cc23)cc1`, the GI50 in [1] was 1.86 µM; in test [2], 1.91 µM; in test [3] it was 1.66 µM; in test [4], 1.48 µM; in [5] it was 1.78 µM; in test [6] it was 1.66 µM. Moreover, the GI50 was 1.74 µM in test [7], 1.89 µM in test [8], 1.83 µM in [9] and 1.83 µM in test [10]. Also, the TGI is 3.29 µM in test [1]; 3.33 µM in [2]; 3.17 µM in test [3]; 3.09 µM in test [4]; 3.2 µM in test [5]; 4.24 µM in test [6]. The TGI in test [7] is 3.13 µM; in test [8], 3.63 µM; in test [9], 3.45 µM; in test [10], 3.81 µM.

On to `COc1cc2c3c(n(CCCN)c(=O)c2cc1OC)-c1ccc(F)cc1C3=O`, for which the GI50 in test [1] is 1.28 µM; in test [2], 14.7 µM; in [3], 0.955 µM; in [4], 0.544 µM; in test [5] it was 12.6 µM; in test [6], 1.24 µM. Further, the GI50 was 0.861 µM in test [7], 1.17 µM in test [8], 0.564 µM in [9] and 1.19 µM in [10]. Further, the TGI in [1] is 3.17 µM; in [2] it was 30.4 µM; in test [3] it was 4.68 µM; in test [4], 2.05 µM; in [5], 26.9 µM; in test [6], 5.28 µM. For the same molecule, the TGI in [7] was 6.14 µM; in test [8], 15.5 µM; in test [9], 14.9 µM; in test [10] it was 2.46 µM.

Regarding `N#CC1C(=N)Cc2ccccc2-c2ccccc21` (stereo not drawn), the GI50 in test [1] was 3.92 µM; in [2], 20.2 µM; in test [3] it was 6.26 µM; in test [4], 4.59 µM; in test [5], 6.36 µM; in test [6], 2.71 µM. For the same molecule, the GI50 was 12.8 µM in test [7], 4.22 µM in test [8], 2.21 µM in test [9] and 3.25 µM in test [10]. Further, the TGI in [1] is 25.2 µM; in [2] it was 63.6 µM; in test [3] it was 33.5 µM; in test [4], 56.2 µM; in test [5], 30.3 µM; in test [6], 89.4 µM. The TGI was determined as 82.5 µM in [7], 43.4 µM in test [8], 9.36 µM in [9] and 15.3 µM in [10].

On to `O=C1c2ccccc2S(=O)(=O)N1CSC(=S)N1CCCC1`, for which the GI50 in test [1] was above 100 µM; in test [2] it was above 100 µM; in test [3] it was above 100 µM; in test [4] it was above 100 µM; in test [5], above 100 µM; in [6] it was 4.02 µM. Besides, the GI50 in test [7] was above 100 µM; in test [8], above 100 µM; in test [9], above 100 µM; in [10], 63.8 µM. For the same molecule, the TGI in test [1], in test [2], in test [3], in [4], in test [5] and in test [6] was above 100 µM in each case. Also, the TGI in test [7], in test [8], in test [9] and in [10] was above 100 µM throughout.

Regarding `CS(=O)(=O)N1CCN(Cc2cc3nc(-c4cccc5[nH]ncc45)nc(N4CCOCC4)c3s2)CC1` (tested in a mixture with another compound), the GI50 is 0.0319 µM in test [1]; 0.129 µM in test [2]; 0.169 µM in test [3]; 0.112 µM in test [4]; 0.21 µM in test [5]; 0.349 µM in test [6]. For the same molecule, the GI50 was 0.0638 µM in [7], 0.824 µM in [8], 0.062 µM in [9] and 0.149 µM in test [10]. Moreover, the TGI in [1] was 0.108 µM; in test [8] it was above 100 µM; in [9], 0.468 µM.

With `Cn1cc2c(n1)c(N/N=C/c1ccccc1)nn1nnnc21`, the TGI in [1], in test [2], in [3], in [4], in test [5] and in [6] was above 100 µM each time. Besides, the TGI in test [7], in test [8], in [9] and in [10] was above 100 µM throughout.

Take `COc1cc2cc(Oc3ccc(NC(=O)Nc4ccccc4)cc3)c(C)nc2cc1OCCN1CCCCC1`: the GI50 was 5.46 µM in test [1]; 8.3 µM in [2]; 5.38 µM in test [3]; 5.96 µM in test [4]; 5.41 µM in [5]; 1.05 µM in test [6]. The GI50 is 5.74 µM in [7], 6.09 µM in test [8], 6 µM in test [9] and 4.77 µM in test [10]. The TGI in test [1] came out at 10.3 µM; in [2], 17.3 µM; in test [3] it was 10.1 µM; in test [4], 12.9 µM; in test [5], 9.92 µM; in [6], 3.7 µM. Besides, the TGI in test [7] is 10.3 µM; in [8], 11.9 µM; in test [9], 11.2 µM; in test [10], 10.1 µM.

In the case of `O=C(O)CCC1COc2ccccc2O1` (stereo not drawn), the TGI in [1], in [2], in test [3], in test [4], in test [5] and in test [6] was above 10 µM throughout. Also, the TGI in test [7], in test [8], in test [9] and in [10] was above 10 µM in each case.

Regarding `O=C(Nc1cnn2ccc(N3CCC[C@@H]3c3cc(F)ccc3F)nc12)N1CC[C@H](O)C1`, the GI50 in test [1], in test [2], in test [3], in test [4], in test [5] and in [6] was above 100 µM throughout. Further, the GI50 in test [7], in test [8], in test [9] and in test [10] was above 100 µM each time. Besides, the TGI in test [1], in test [2], in test [3], in test [4], in [5] and in test [6] was above 100 µM each time. Moreover, the TGI in test [7], in test [8], in [9] and in test [10] was above 100 µM throughout.

Turning to `Nc1nc2c(c3ncccc13)C(c1cccc(Cl)c1)Cc1ncccc1-2` (stereo not drawn), the GI50 in test [1] is 1.96 µM; in test [2], 8.11 µM; in test [3] it was 5.12 µM; in test [4], 2.45 µM; in test [5], 8.17 µM; in test [6], 0.53 µM. Also, the GI50 in test [7] is 5.13 µM; in test [8], 0.88 µM; in test [9] it was 2.21 µM; in test [10], 1.36 µM. Moreover, the TGI in test [1] is 7.25 µM; in test [2], 65.7 µM; in test [3], 19.5 µM; in [4], 18.1 µM; in [5], 28.4 µM; in [6], above 100 µM. The TGI in test [7] is 67.1 µM; in test [8], 30.8 µM; in test [9], 11 µM; in test [10], 14.5 µM.

`COc1ccc(NC(=O)C(=O)NNC(=O)c2sc(NNC(C)=O)nc2C)c([N+](=O)[O-])c1`: the TGI in [1], in [2], in [3], in [4], in [5] and in test [6] was above 100 µM throughout. Also, the TGI in [7], in test [8], in test [9] and in [10] was above 100 µM throughout.

Take `C(CCc1nnc2c(n1)CCCC2)Cc1nnc2c(n1)CCCC2`: the TGI in [1], in test [2], in test [3], in test [4], in [5] and in test [6] was above 100 µM throughout. For the same molecule, the TGI in [7], in [8], in test [9] and in test [10] was above 100 µM each time.

As for `CCOP(=O)(CC(=O)C1=C(O)C(CCCNC(=O)OC(C)(C)C)N(Cc2ccc(OC)c(OC)c2)C1=O)OCC` (stereo not drawn), the TGI in [1], in test [2], in [3], in test [4], in [5] and in [6] was above 100 µM throughout. For the same molecule, the TGI in test [7], in test [8], in test [9] and in test [10] was above 100 µM in each case.
